Data: PMC4108065, “Inflammation and pancreatic cancer: molecular and functional interactions between S100A8, S100A9, NT-S100A8 and TGFβ1” (Cell Communication and Signaling : CCS, 2014)

Key:
Type in all cases: cell-based, human
[1] = test system: mTOR Ser2481, Ser2448 and S6 Ribosomal Protein phosphorylation; experiment: mTOR signaling, western blot in PDAC cell lines; conditions: BxPC3, Capan1, MiaPaCa2, Panc1, 10 min, 10 nM S100A8, S100A9, S100A8/A9, 50 nM NT-S100A8, 0.02 ng/ml TGFβ1
Protocol: (§1) Five million cells were seeded in Petri dishes (ø 10 cm) and cultured for 24 hours in their respective complete media prior to starting the experiments. Cells remained non-stimulated (negative control) or were stimulated with 50 mU insulin (positive control) (Insuman Rapid, Sanofi-Aventis, Deutschland, GmbH) for 10 min; in parallel, experimental cells were stimulated with 50 nM NT-S100A8, 0,02 ng/ml TGFβ1 (ProSpec-Tany TechnoGene), 10 nM S100A8 and 10 nM S100A9 alone or combined for 10 min. Following stimulations, Petri dishes were immediately transferred into an ice bath, and the cells were washed twice with cold PBS, re-suspended in 100 μl of cold lysis buffer [20 mM Tris–HCl, pH 7.5, 150 mM NaCl, 1 mM EDTA, 1% Triton-X 100, 50 mM NaF, 10 mM Na4P2O7,1 mM Na3VO4, and 10% protease inhibitor cocktail (Sigma Aldrich SRL, Milano, Italy)]. Lysates were centrifuged for 10 min at 14,000 rpm at 4°C and, in the supernatants, total proteins were measured using the Bio-Rad protein assay (Bio-Rad Laboratories, Milano, Italy). Each experiment was performed at least in triplicate.
(§2) For each sample, 40 μg proteins were electrophoresed through 4–12% NuPAGE®NovexBis-Tris SDS–PAGE Gel or 3-8% NuPAGE®NovexTris-Acetate SDS–PAGE Gel (Invitrogen S.R.L., Life Technologies, Monza, Italy) and electrophoretically transferred to Nitrocellulose Membrane (iBlot® Transfer Stack, Invitrogen S.R.L.) by means of the iBlotTMDry Blotting System (Invitrogen S.R.L.). Following incubation for 1 hour in a blocking buffer [5% low fat powder milk re-suspended in PBS-T (PBS with 0.1% Tween-20)], membranes were incubated overnight at 4°C with the primary antibodies [antiphospho IkB-α (Ser^32) (Santa Cruz Biotechnology, Inc., Santa Cruz, CA, USA); anti-phospho-Akt (Ser^473), anti-phospho-Akt (Thr^308), anti-Akt and anti-phospho-S6 Ribosomal Protein (Ser^235/236), anti-cleaved Caspase-3, anti-phospho-Stat3 Tyr^705, anti-β-actin, anti-phospho mTOR (Ser^2448, Ser^2481) (Cell Signaling Technology, Danvers, MA, USA); anti-RAGE (R&D Systems, Minneapolis, MN, USA) ] diluted 1:5000 (β-actin), 1:2000 (mTOR, cleaved Caspase-3, Stat3) or 1:3000 (all the others) in the blocking buffer. The blots, washed three times in PBS-T for 15 min, were incubated with […] anti-rabbit (Cell Signaling Technology) or anti-goat (Sigma Aldrich) secondary antibodies and then washed three times in PBS-T for 15 min and developed with the ECL Advance Western Blot Detection Kit (GE Healthcare Technologies, Milan, Italy).

[2] = test system: Smad4 silenced MiaPaCa2 IκBα and S6RP phosphorylation; experiment: Signaling western blot in Smad4 silenced MiaPaCa2; conditions: Smad4-siRNA MiaPaCa2 vs MiaPaCa2, 10 minutes, 0.02 ng/ml TGFβ1, 10 nM S100A8, 50 nM NT-S100A8; for effect of silenced Smad4 on S6RP phosphorylation: western blot; for effect of Smad4 silencing on inhibition of NF-κB: IκBα Ser32 western blot
Protocol: The pancreatic cancer cell lines used were: Panc1 and Suit2, donated by Prof Aldo Scarpa (University of Verona, Italy); BxPC3, from Dr Andrea Galli (University of Florence, Italy); MiaPaCa2, Capan1 and the human embryonic kidney Hek293 cell lines, supplied by the American Type Culture Collection (Manassas, VA, USA). BxPC3, Capan1 and Panc1 were cultured in RPMI (Gibco/BRL, Gaithhersburg, MD, USA) supplemented with 10% (BxPC3 and Panc1) and 20% (Capan1) fetal calf serum (FCS) (Gibco/BRL), 1% L-glutamine (Gibco/BRL) and 0.1% gentamycin (Gibco/BRL). MiaPaCa2 and Hek293 were cultured in DMEM (Gibco/BRL) supplemented with 10% FCS, 2% L-glutamine and 0.1% Gentamycin. BxPC3 cells were transfected with the expression vector pBK-cytomegalovirus (CMV)-SMAD4/DPC4, as previously described. One SMAD4/DPC4-expressing clone (BxPC3-SMAD4+) was used for the experiments. Smad4 silencing of MiaPaCa2 cells was performed as previously described.
as §1, §2

[3] = test system: MiaPaCa2; experiment: XTT cell viability assay, MiaPaCa2; conditions: 48 hours, TGFβ1 0.02 ng/ml, NT-S100A8 50 nM, S100A8 10 nM, S100A9 10 nM, alone or combined, at least three independent experiments in quadruplicate
Protocol: BxPC3, Capan1, MiaPaCa2, Panc1 and BxPC3-SMAD4+ cells were seeded (2000 cells per well) in 96-well cell culture plates and cultured in complete media for 24 hours. Media were then replaced with fresh cell culture media in absence (control) or in presence of TGFβ1 (0.02 ng/ml) and NT-S100A8 (50 nM), alone or combined or in absence (control) or in presence of TGFβ1 (0.02 ng/ml), S100A8 (10 nM) and S100A9 (10 nM) alone or combined. Cell growth was assessed after 48 hours using the XTT cell viability test (Roche, Milano, Italy). At least three independent experiements, each made in quadruplicate, were run. The results were expressed as percentage with respect to the median Abs450nm of control cells run in the same experimental set.

Substance | mTOR Ser2448 phosphorylation [1] | mTOR Ser2481 phosphorylation [1] | effect of silenced Smad4 on S6RP phosphorylation [2] | MiaPaCa2 % to Control Mean± SEM [3] | effect of Smad4 silencing on inhibition of NF-κB [2]
NT-S100A8: 14 N-terminal aminoacid peptide of S100A8, isolated from PDAC tissues (MLTELEKALNSIID; UniProt P05109 1-14, looked up, fragment) | inducing Ser^2481 and Ser^2448 phosphorylation in all cell lines | inducing Ser^2481 and Ser^2448 phosphorylation in all cell lines | markedly reduced S6RP phosphorylation |  | 
S100A8: inflammatory calcium binding protein S100A8 (ProSpec-Tany TechnoGene) | induced mTOR Ser^2448 phosphorylation in all cell lines | Ser^2481 in BxPC3 and Capan1 | markedly reduced S6RP phosphorylation | 102.13± 4.93 % to Control | reduced the inhibition of NF-κB
S100A9: inflammatory calcium binding protein S100A9, S100A8 binding partner | induced mTOR Ser^2448 phosphorylation in all cell lines | Ser^2481 in BxPC3 and Capan1 |  | 104.38± 4.09 % to Control | 
TGFβ1: transforming growth factor beta 1 (ProSpec-Tany TechnoGene) | inducing Ser^2481 and Ser^2448 phosphorylation in all cell lines | inducing Ser^2481 and Ser^2448 phosphorylation in all cell lines | markedly reduced S6RP phosphorylation | 102.11 ± 4.65 % to Control | reduced the inhibition of NF-κB
